Assay results published in US20170067909A1, “ASSAY-READY RECOMBINANT CELLS TRANSIENTLY OVEREXPRESSING GENES ENCODING DRUG TRANSPORTER PROTEINS AND/OR DRUG METABOLIZING ENZYMES” (Corning Incorporated, priority 2012, published 2017).
Substitutions are numbered along the chain they refer to.

How the values were obtained:
[1] = tested on: monkey Oatp1b1
[2] = molecular target: T1, OATP1B1*5 (Homo sapiens, UniProt Q9Y6L6, V174A); assay: OATP1B1 single nucleotide polymorphism panel uptake assay, OATP1B1*5 HEK-293 cells
T1 sequence (Q9Y6L6 1-691 V174A): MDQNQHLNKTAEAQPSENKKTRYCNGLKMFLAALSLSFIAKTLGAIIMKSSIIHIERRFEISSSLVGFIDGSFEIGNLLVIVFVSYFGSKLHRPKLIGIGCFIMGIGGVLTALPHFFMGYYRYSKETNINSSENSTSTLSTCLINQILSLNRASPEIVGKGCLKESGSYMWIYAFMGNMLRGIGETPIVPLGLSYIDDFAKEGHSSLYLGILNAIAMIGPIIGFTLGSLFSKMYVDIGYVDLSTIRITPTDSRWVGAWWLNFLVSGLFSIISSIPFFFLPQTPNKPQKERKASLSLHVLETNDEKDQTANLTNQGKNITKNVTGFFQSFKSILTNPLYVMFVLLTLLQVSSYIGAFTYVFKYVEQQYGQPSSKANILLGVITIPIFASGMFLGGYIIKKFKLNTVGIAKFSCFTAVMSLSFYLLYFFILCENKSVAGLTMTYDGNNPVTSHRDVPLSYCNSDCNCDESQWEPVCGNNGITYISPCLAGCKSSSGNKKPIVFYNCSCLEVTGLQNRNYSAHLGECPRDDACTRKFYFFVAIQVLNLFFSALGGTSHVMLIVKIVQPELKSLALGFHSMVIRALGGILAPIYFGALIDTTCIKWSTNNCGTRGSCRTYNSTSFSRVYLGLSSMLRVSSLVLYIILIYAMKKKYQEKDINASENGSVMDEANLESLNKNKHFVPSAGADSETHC

[3] = molecular target: T2, OATP1B1*1a (Homo sapiens, UniProt Q9Y6L6); settings: read-out: Km, Literature Report; HEK293 cells; P. Sharma, et al. Xenobiotica 40:24. 2010; cited from earlier work
T2 sequence (Q9Y6L6 1-691): T1 sequence (Q9Y6L6 1-691 V174A) with A174V

[4] = molecular target: T3, Organic Anion-Transporting Polypeptide 1B1 (Homo sapiens, UniProt Q9Y6L6); assay: Positive control plated (adherent) assay, Corning TransportoCells OATP1B1*1a; format: in vitro ADME; settings: PC: Plated Assay, Seeded at 250k/well (24-well), assay at 48 hours; 5 uM FMTX, 10 min
T3 construct: host or cells: HEK293 cells, gene delivered by electroporation
T3 sequence (Q9Y6L6 1-691): T1 sequence (Q9Y6L6 1-691 V174A) with A174V
Source text: A positive control was provided via an adherent assay for characterizing the activity of a drug transporter protein in cryopreserved, Corning® TransportoCells™. Corning® TransportoCells™ transiently transfected with the gene OATP1B1*1a were obtained from Corning Life Sciences (Cat. No. 354859). In order to obtain suitable expression of the Organic Anion-Transporting Polypeptide 1B1 encoded by OATP1B1*1a, the Corning® TransportoCells™ were thawed, cultured, and harvested. […] The cells were cultured via plating in a 24-well PDL-Treated Plate (cell density of 250K cells/well; obtained from Corning Life Sciences) with plating medium for 48 hours at 37° C. and 8% CO2. The plating medium is detailed in Table 16. After 24 hours, cells were refed by 400 uL plating media supplemented with 5 mM sodium butyrate (obtained from Sigma). After 48 hours, cells were washed three times using 0.4 mL prewarmed HBSS (Corning). Then 0.3 mL substrate solution containing 5 uM FMTX were added to the cells and the cells were incubated for 10 min at 37 degree. After 10 min incubation time, the cells were washed 3 times using 0.4 mL cold HBSS. The cells were lysed and subjected to the BCA protein analysis and/or fluorescence analysis to characterize the activity of Organic Anion-Transporting Polypeptide 1B1.

Compound	uptake of substrate (in words) ([1]; HEK-293 cells overexpressing the transporter)	Km ([1]; incubation of 5 minutes, Michaelis-Menten kinetics)	uptake activity / transport compared to OATP1B1*1a cells (in words) [2]	Km [3]	Uptake Activity OATP1B1 [4]	Uptake Ratio [4]
C[C@]12CC[C@@H]3c4ccc(O)cc4CC[C@H]3[C@@H]1CC[C@@H]2O[C@@H]1O[C@H](C(=O)O)[C@@H](O)[C@H](O)[C@H]1O [E17βG]	significant uptake	6.3 ± 1.4 µM	Significantly impaired transport	6.3 µM	–	–
fluorescein methotrexate [FMTX]	–	–	Significantly impaired transport	–	1.06 pmol/mg/min	30.6
